#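 Cultured in 96-well plates, cells were exposed to test compound for 48 hours across five concentrations. TGI marks complete inhibition of growth.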
# Tests used:
# Experiment in all cases: growth of human tumour cells (NCI), 48 h
# [1] = test system: 786-0 renal
# [2] = test system: A498 renal
# [3] = test system: A549 NSCLC
# [4] = test system: ACHN renal
# [5] = test system: CAKI-1 renal
# [6] = test system: CCRF-CEM leukemia
# [7] = test system: COLO 205 colon
# [8] = test system: DLD-1 colon
# [9] = test system: DMS 114 small cell lung
# [10] = test system: DMS 273 small cell lung
# [11] = test system: EKVX NSCLC
# [12] = test system: HCC-2998 colon
# [13] = test system: HCT-116 colon
# [14] = test system: HCT-15 colon
# [15] = test system: HL-60(TB) leukemia
# [16] = test system: HOP-18 NSCLC
# [17] = test system: HOP-62 NSCLC
# [18] = test system: HT29 colon
# [19] = test system: IGROV1 ovarian
# [20] = test system: K-562 leukemia
# [21] = test system: KM12 colon
# [22] = test system: KM20L2 colon
# [23] = test system: LOX IMVI melanoma
# [24] = test system: LXFL 529 NSCLC
# [25] = test system: M14 melanoma
# [26] = test system: M19-MEL melanoma
# [27] = test system: MALME-3M melanoma
# [28] = test system: MOLT-4 leukemia
# [29] = test system: NCI-H226 lung
# [30] = test system: NCI-H23 lung
# [31] = test system: NCI-H460 lung
# [32] = test system: NCI-H522 lung
# [33] = test system: OVCAR-3 ovarian
# [34] = test system: OVCAR-4 ovarian
# [35] = test system: OVCAR-5 ovarian
# [36] = test system: OVCAR-8 ovarian
# [37] = test system: RPMI-8226 leukemia
# [38] = test system: RXF 393 renal
# [39] = test system: RXF-631 renal
# [40] = test system: SF-268 CNS
# [41] = test system: SF-295 CNS
# [42] = test system: SF-539 CNS
# [43] = test system: SK-MEL-2 melanoma
# [44] = test system: SK-MEL-5 melanoma
# [45] = test system: SK-OV-3 ovarian
# [46] = test system: SN12C renal
# [47] = test system: SNB-19 CNS
# [48] = test system: SNB-75 CNS
# [49] = test system: SNB-78 CNS
# [50] = test system: SW-620 colon
# [51] = test system: TK-10 renal
# [52] = test system: U251 CNS
# [53] = test system: UACC-257 melanoma
# [54] = test system: UACC-62 melanoma
# [55] = test system: UO-31 renal
# [56] = test system: XF 498 CNS
# [57] = test system: HOP-92 NSCLC
# [58] = test system: SK-MEL-28 melanoma
# [59] = test system: BT-549 breast
# [60] = test system: DU-145 prostate
# [61] = test system: HS 578T breast
# [62] = test system: MCF7 breast
# [63] = test system: MDA-MB-231 breast
# [64] = test system: MDA-MB-435
# [65] = test system: NCI/ADR-RES ovarian
# [66] = test system: SR leukemia
# [67] = test system: T-47D breast
structure (smiles),measurement,setting,value
COC(=O)C1=C(CS(=O)c2ccc([N+](=O)[O-])cc2[N+](=O)[O-])C2C=CC1C2 (stereo not drawn),TGI,[1],62.6 µM
same,TGI,[2],> 100 µM
same,TGI,[3],> 100 µM
same,TGI,[4],39.5 µM
same,TGI,[5],39.6 µM
same,TGI,[6],34.6 µM
same,TGI,[7],41.5 µM
same,TGI,[8],37.6 µM
same,TGI,[9],49.5 µM
same,TGI,[10],43 µM
same,TGI,[11],> 100 µM
same,TGI,[12],95.3 µM
same,TGI,[13],45.1 µM
same,TGI,[14],29.1 µM
same,TGI,[15],37.2 µM
same,TGI,[16],> 100 µM
same,TGI,[17],> 100 µM
same,TGI,[18],35.2 µM
same,TGI,[19],> 100 µM
same,TGI,[20],52.5 µM
same,TGI,[21],> 100 µM
same,TGI,[22],57.8 µM
same,TGI,[23],30.8 µM
same,TGI,[24],56.9 µM
same,TGI,[25],> 100 µM
same,TGI,[26],64.2 µM
same,TGI,[27],79.5 µM
same,TGI,[28],59.8 µM
same,TGI,[29],98.4 µM
same,TGI,[30],98.9 µM
same,TGI,[31],> 100 µM
same,TGI,[32],27.3 µM
same,TGI,[33],66.8 µM
same,TGI,[34],67.1 µM
same,TGI,[35],> 100 µM
same,TGI,[36],80.9 µM
same,TGI,[37],> 100 µM
same,TGI,[38],52.1 µM
same,TGI,[39],32.7 µM
same,TGI,[40],> 100 µM
same,TGI,[41],> 100 µM
same,TGI,[42],51.2 µM
same,TGI,[43],> 100 µM
same,TGI,[44],> 100 µM
same,TGI,[45],> 100 µM
same,TGI,[46],50.2 µM
same,TGI,[47],> 100 µM
same,TGI,[48],76.6 µM
same,TGI,[49],> 100 µM
same,TGI,[50],28.6 µM
same,TGI,[51],51.7 µM
same,TGI,[52],49.4 µM
same,TGI,[53],92.2 µM
same,TGI,[54],42.2 µM
same,TGI,[55],45.9 µM
same,TGI,[56],64.1 µM
CCc1cccc(C)c1NC(=O)CCc1nnc2s/c(=C\c3cccc4ccccc34)c(=O)n12,TGI,[1],> 100 µM
same,TGI,[2],> 100 µM
same,TGI,[3],> 100 µM
same,TGI,[4],> 100 µM
same,TGI,[5],> 100 µM
same,TGI,[6],> 100 µM
same,TGI,[7],> 100 µM
same,TGI,[8],> 100 µM
same,TGI,[9],> 100 µM
same,TGI,[10],> 100 µM
same,TGI,[12],> 100 µM
same,TGI,[13],> 100 µM
same,TGI,[14],> 100 µM
same,TGI,[15],> 100 µM
same,TGI,[17],> 100 µM
same,TGI,[57],> 100 µM
same,TGI,[18],> 100 µM
same,TGI,[19],> 100 µM
same,TGI,[20],> 100 µM
same,TGI,[21],> 100 µM
same,TGI,[22],> 100 µM
same,TGI,[23],> 100 µM
same,TGI,[24],> 100 µM
same,TGI,[25],> 100 µM
same,TGI,[26],> 100 µM
same,TGI,[27],> 100 µM
same,TGI,[28],> 100 µM
same,TGI,[29],> 100 µM
same,TGI,[30],> 100 µM
same,TGI,[31],> 100 µM
same,TGI,[32],> 100 µM
same,TGI,[33],> 100 µM
same,TGI,[34],> 100 µM
same,TGI,[35],> 100 µM
same,TGI,[36],> 100 µM
same,TGI,[37],> 100 µM
same,TGI,[38],> 100 µM
same,TGI,[39],> 100 µM
same,TGI,[40],> 100 µM
same,TGI,[41],> 100 µM
same,TGI,[42],> 100 µM
same,TGI,[43],> 100 µM
same,TGI,[58],> 100 µM
same,TGI,[44],> 100 µM
same,TGI,[45],> 100 µM
same,TGI,[46],> 100 µM
same,TGI,[47],> 100 µM
same,TGI,[48],> 100 µM
same,TGI,[49],> 100 µM
same,TGI,[50],> 100 µM
same,TGI,[51],> 100 µM
same,TGI,[52],> 100 µM
same,TGI,[53],> 100 µM
same,TGI,[54],> 100 µM
same,TGI,[55],> 100 µM
same,TGI,[56],> 100 µM
CCOc1ccc(/C(C=O)=C(\Cl)c2ccc(OC)cc2)cc1,TGI,[1],> 100 µM
same,TGI,[2],> 100 µM
same,TGI,[3],> 100 µM
same,TGI,[4],> 100 µM
same,TGI,[59],> 100 µM
same,TGI,[5],> 100 µM
same,TGI,[6],> 100 µM
same,TGI,[7],> 100 µM
same,TGI,[8],> 100 µM
same,TGI,[9],> 100 µM
same,TGI,[10],> 100 µM
same,TGI,[60],> 100 µM
same,TGI,[11],> 100 µM
same,TGI,[12],> 100 µM
same,TGI,[13],> 100 µM
same,TGI,[14],> 100 µM
same,TGI,[15],> 100 µM
same,TGI,[16],> 100 µM
same,TGI,[17],> 100 µM
same,TGI,[57],> 100 µM
same,TGI,[61],> 100 µM
same,TGI,[18],> 100 µM
same,TGI,[19],> 100 µM
same,TGI,[20],> 100 µM
same,TGI,[21],> 100 µM
same,TGI,[22],> 100 µM
same,TGI,[23],> 100 µM
same,TGI,[24],> 100 µM
same,TGI,[25],> 100 µM
same,TGI,[26],> 100 µM
same,TGI,[27],> 100 µM
same,TGI,[62],> 100 µM
same,TGI,[63],> 100 µM
same,TGI,[64],> 100 µM
same,TGI,[28],> 31.6 µM
same,TGI,[29],> 100 µM
same,TGI,[30],> 100 µM
same,TGI,[31],> 100 µM
same,TGI,[32],> 100 µM
same,TGI,[65],> 100 µM
same,TGI,[33],> 100 µM
same,TGI,[34],> 100 µM
same,TGI,[35],> 100 µM
same,TGI,[36],> 100 µM
same,TGI,[37],> 100 µM
same,TGI,[38],> 100 µM
same,TGI,[40],> 100 µM
same,TGI,[41],> 100 µM
same,TGI,[42],> 100 µM
same,TGI,[43],> 100 µM
same,TGI,[58],> 100 µM
same,TGI,[44],> 100 µM
same,TGI,[45],> 100 µM
same,TGI,[46],> 100 µM
same,TGI,[47],> 100 µM
same,TGI,[48],> 100 µM
same,TGI,[49],> 100 µM
same,TGI,[66],> 100 µM
same,TGI,[50],> 100 µM
same,TGI,[67],> 100 µM
same,TGI,[51],> 100 µM
same,TGI,[52],> 100 µM
same,TGI,[53],> 100 µM
same,TGI,[54],> 100 µM
same,TGI,[55],> 100 µM
same,TGI,[56],> 100 µM

# — PubChem BioAssay (NCI)
